This experiment deals with LeuS (Escherichia coli, UniProt P07813). Put plainly: HAMA hydroxamate LC-MS/MS competition assay. It is filed as biochemical. The following applies: amino acid mixture.

We go through one molecule from publication PMC6988596 (Chemical Science, 2019).

On to `CC(C)C[C@H](N)C(=O)O` [L-Leu], for which the “HAMA hydroxamate LC-MS/MS competition assay” value is “all three specificities were correctly identified and almost no side-activities detected”.
